{"source": "BindingDB's records for PubMed 37336067", "about": "(State University of Paraiba)"}
{"biological_target": "Glycylpeptide N-tetradecanoyltransferase 1 (Homo sapiens) (UniProt P30419)", "sequence (P30419 whole entry, looked up)": "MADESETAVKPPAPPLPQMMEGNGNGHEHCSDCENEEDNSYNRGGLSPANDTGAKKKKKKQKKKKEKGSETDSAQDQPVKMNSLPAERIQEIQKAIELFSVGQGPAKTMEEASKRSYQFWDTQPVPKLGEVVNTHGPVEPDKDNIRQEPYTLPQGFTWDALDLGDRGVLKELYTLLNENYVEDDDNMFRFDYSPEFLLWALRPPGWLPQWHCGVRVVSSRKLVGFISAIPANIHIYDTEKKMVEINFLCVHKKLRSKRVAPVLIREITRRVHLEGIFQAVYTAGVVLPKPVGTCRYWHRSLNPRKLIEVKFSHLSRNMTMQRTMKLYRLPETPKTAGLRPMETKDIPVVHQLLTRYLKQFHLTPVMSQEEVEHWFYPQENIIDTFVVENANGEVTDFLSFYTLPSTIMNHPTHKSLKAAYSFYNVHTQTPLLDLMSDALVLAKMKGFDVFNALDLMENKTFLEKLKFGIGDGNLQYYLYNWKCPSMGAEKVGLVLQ", "assay": "Inhibition of recombinant N-terminal his-6 tagged human NMT expressed in Escherichia coli BL21 (DE3)pLysS using peptide substrate preincubated for 5 mins followed by substrate addition and measured after 30 mins by scintillation proximity assay", "units": {"IC50": "µM"}}
{"compound": "O=C(Nc1nc2ccccc2s1)[C@H]1CC[C@@H](NCc2ccc3ccccc3c2)CC1", "IC50": 286}
{"compound": "CN(C)C(=O)c1ccc2nc(NC(=O)[C@@H]3CCC[C@H](NCc4ccc5ccoc5c4)C3)sc2c1", "IC50": 656}
{"compound": "O=C(Nc1nc2cc(F)ccc2s1)[C@H]1CC[C@@H](NCc2ccc3ccccc3c2)CC1", "IC50": 656}
